We go through 31 compounds from patent US8158810B2 (Gilead Sciences, Inc., priority 2006, dated 2012).

SMILES strings stand for the structures.

The target in one test is T1, hMAO-A (Homo sapiens, UniProt P21397).
T1 construct: purchased Sigma M7316
T1 sequence (P21397 1-527): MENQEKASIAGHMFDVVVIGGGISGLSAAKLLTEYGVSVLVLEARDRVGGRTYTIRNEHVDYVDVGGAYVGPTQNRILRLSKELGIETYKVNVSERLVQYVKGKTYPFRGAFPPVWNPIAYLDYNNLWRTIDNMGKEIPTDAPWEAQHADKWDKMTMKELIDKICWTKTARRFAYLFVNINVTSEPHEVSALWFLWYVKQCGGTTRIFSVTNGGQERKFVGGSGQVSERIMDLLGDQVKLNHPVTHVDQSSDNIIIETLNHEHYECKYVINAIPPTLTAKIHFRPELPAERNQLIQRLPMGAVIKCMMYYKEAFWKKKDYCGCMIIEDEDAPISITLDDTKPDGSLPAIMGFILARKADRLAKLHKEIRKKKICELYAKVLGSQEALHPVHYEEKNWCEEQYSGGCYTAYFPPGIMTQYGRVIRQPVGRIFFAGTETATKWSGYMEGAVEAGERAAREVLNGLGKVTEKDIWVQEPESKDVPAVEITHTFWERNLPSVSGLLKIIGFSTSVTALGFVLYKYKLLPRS
The test is described as follows: MAO-A inhibition assay. The test is classed as biochemical. As to conditions: up to 10 μM; No = no inhibition; printed in the IC50 hMAO-A column. How it is done:
MAO-A (Sigma M7316) and MAO-B (Sigma M7441) inhibition assays were conducted in 96-well micro-plates according to the method described by Zhou et al. [Analytical Biochemistry 253, 169-174, 1997]. […] Reactions were initiated by the addition of a pre-mixed solution of tyramine, horseradish peroxidase and Amplex Red, and were allowed to proceed at 37° C. for 30 min. Enzyme activities were determined by measuring absorbance at 570 nm (SpectralMax Plate reader), absorbance of oxidized Amplex Red generated by this horseradish peroxidase-coupled reaction. Nonspecifically formed products were determined in the presence of 2 and 10 µM clorgyline and deprenyl for MAO-A and MAO-B, respectively. IC50 values were determined by fitting concentration-inhibition data to sigmoidal dose-response curves with two-floating parameters: IC50 and Hill coefficient.
As to `O=c1c(-c2ccc(O)cc2)coc2cc(OCc3cc(-c4cccc(C(F)(F)F)c4)on3)ccc12` [PT-45, 3-(4-hydroxyphenyl)-7-({5-[3-(trifluoromethyl)phenyl]isoxazol-3-yl}methoxy)chromen-4-one], the “hMAO-A inhibition up to 10 μM” value is given as “No”. Consider `COC(=O)c1cnc(COc2ccc3c(=O)c(-c4ccc(O)cc4)coc3c2)o1` [PT-47, methyl 2-{[3-(4-hydroxyphenyl)-4-oxochromen-7-yloxy]methyl}-1,3-oxazole-5-carboxylate], for which the “hMAO-A inhibition up to 10 μM” value was “No”. Turning to `O=C(O)c1cnc(COc2ccc3c(=O)c(-c4ccc(O)cc4)coc3c2)o1` [PT-49, 2-{[3-(4-hydroxyphenyl)-4-oxochromen-7-yloxy]methyl}-1,3-oxazole-5-carboxylic acid], the “hMAO-A inhibition up to 10 μM” value was “No”.

On to `O=c1c(-c2ccc(O)cc2)coc2cc(OC[C@H](O)CNCc3cccc(C(F)(F)F)c3)ccc12` [PT-53, 7-[(2R)-2-hydroxy-3-({[3-(trifluoromethyl)phenyl]methyl}amino)propoxy]-3-(4-hydroxyphenyl)chromen-4-one], for which the “hMAO-A inhibition up to 10 μM” value was “No”. As to `O=c1c(-c2ccc(O)cc2)coc2cc(OCNCc3cccc(C(F)(F)F)c3)ccc12` [PT-54, 3-(4-hydroxyphenyl)-7-[({[3-(trifluoromethyl)phenyl]methyl}amino)methoxy]chromen-4-one], the “hMAO-A inhibition up to 10 μM” value was “No”. For `O=c1c(-c2ccc(O)cc2)coc2cc(OC[C@H](O)CNCc3cc(F)cc(F)c3)ccc12` [PT-55, 7-((2R)-3-{[(3,5-difluorophenyl)methyl]amino}-2-hydroxypropoxy)-3-(4-hydroxyphenyl)chromen-4-one], the “hMAO-A inhibition up to 10 μM” value was “No”.

On to `C[C@@H](NCC(=O)COc1ccc2c(=O)c(-c3ccc(O)cc3)coc2c1)c1ccc(F)cc1` [PT-56, 7-(3-{[(1R)-1-(4-fluorophenyl)ethyl]amino}-2-oxopropoxy)-3-(4-hydroxyphenyl)chromen-4-one], for which the “hMAO-A inhibition up to 10 μM” value is recorded as 36%. On the same count and under the same terms, under `O=c1c(-c2ccc(O)cc2)coc2cc(OCCCc3ccccc3)ccc12` [PT-57, 3-(4-hydroxyphenyl)-7-(3-phenylpropoxy)chromen-4-one] stands “No”; under `O=c1c(-c2ccc(O)cc2)coc2cc(OCc3nnc(-c4cccc(F)c4)o3)ccc12` [PT-58, 7-{[5-(3-fluorophenyl)(1,3,4-oxadiazol-2-yl)]methoxy}-3-(4-hydroxyphenyl)chromen-4-one], “No”; under `O=c1c(-c2ccc(O)cc2)coc2cc(OCc3nnc(-c4cccc(C(F)(F)F)c4)o3)ccc12` [PT-60, 3-(4-hydroxyphenyl)-7-({5-[3-(trifluoromethyl)phenyl](1,3,4-oxadiazol-2-yl)}methoxy)chromen-4-one], “No”. In the case of `O=c1c(-c2ccc(O)cc2)coc2cc(OCc3cnc(-c4ccccc4)o3)ccc12` [PT-61, 3-(4-hydroxyphenyl)-7-[(2-phenyl(1,3-oxazol-5-yl))methoxy]chromen-4-one], the “hMAO-A inhibition up to 10 μM” value was “No”. Regarding `O=c1c(-c2ccc(O)cc2)coc2cc(OCc3nnc(-c4ccccc4Cl)s3)ccc12` [PT-64, 7-{[5-(2-chlorophenyl)(1,3,4-thiadiazol-2-yl)]methoxy}-3-(4-hydroxyphenyl)chromen-4-one], the “hMAO-A inhibition up to 10 μM” value was “No”.

With `Cc1nc(-c2ccc(C(F)(F)F)cc2)sc1COc1ccc2c(=O)c(-c3ccc(C#N)cc3)coc2c1` [PT-65, 4-[7-({4-methyl-2-[4-(trifluoromethyl)phenyl](1,3-thiazol-5-yl)}methoxy)-4-oxochromen-3-yl]benzenecarbonitrile], the “hMAO-A inhibition up to 10 μM” value is given as “No”. The same measure, in the same setting: for `Cc1nc(-c2ccc(C(F)(F)F)cc2)sc1COc1ccc2c(=O)c(-c3ccc(NS(C)(=O)=O)cc3)coc2c1` [PT-66, 3-{4-[(methylsulfonyl)amino]phenyl}-7-({4-methyl-2-[4-(trifluoromethyl)phenyl](1,3-thiazol-5-yl)}methoxy)chromen-4-one] the value was “No”; for `COc1ccc(-c2coc3cc(OCc4sc(-c5ccc(C(F)(F)F)cc5)nc4C)ccc3c2=O)cn1` [PT-67, 3-(6-methoxy(3-pyridyl))-7-({4-methyl-2-[4-(trifluoromethyl)phenyl](1,3-thiazol-5-yl)}methoxy)chromen-4-one], “No”. The same measure, in the same setting: for `N#Cc1ccc(-c2coc3cc(OCc4nnc(-c5cc(F)cc(C(F)(F)F)c5)o4)ccc3c2=O)cc1` [PT-68, 4-[7-({5-[5-fluoro-3-(trifluoromethyl)phenyl](1,3,4-oxadiazol-2-yl)}methoxy)-4-oxochromen-3-yl]benzenecarbonitrile] the value was “No”. Regarding `N#Cc1ccc(-c2coc3cc(OCc4cc(-c5cccc(C(F)(F)F)c5)no4)ccc3c2=O)cc1` [PT-69, 4-[4-oxo-7-({3-[3-(trifluoromethyl)phenyl]isoxazol-5-yl}methoxy)chromen-3-yl]benzenecarbonitrile], the “hMAO-A inhibition up to 10 μM” value is “No”. As to `CS(=O)(=O)Nc1ccc(-c2coc3cc(OCc4noc(-c5cc(F)cc(C(F)(F)F)c5)n4)ccc3c2=O)cc1` [PT-70, 7-({5-[3-fluoro-5-(trifluoromethyl)phenyl](1,2,4-oxadiazol-3-yl)}methoxy)-3-{4-[(methylsulfonyl)amino]phenyl}chromen-4-one], the “hMAO-A inhibition up to 10 μM” value is given as “No”. As to `CS(=O)(=O)c1ccc(-c2coc3cc(OCc4noc(-c5cc(F)cc(C(F)(F)F)c5)n4)ccc3c2=O)cc1` [PT-71, 7-({5-[3-fluoro-5-(trifluoromethyl)phenyl](1,2,4-oxadiazol-3-yl)}methoxy)-3-[4-(methylsulfonyl)phenyl]chromen-4-one], the “hMAO-A inhibition up to 10 μM” value is reported as “No”.

Take `CC(=O)c1cccc(-c2coc3cc(OCc4noc(-c5cc(F)cc(C(F)(F)F)c5)n4)ccc3c2=O)c1` [PT-73, 3-(3-acetylphenyl)-7-({5-[3-fluoro-5-(trifluoromethyl)phenyl](1,2,4-oxadiazol-3-yl)}methoxy)chromen-4-one]: the “hMAO-A inhibition up to 10 μM” value is “No”. `O=c1c(-c2ccc(O)cc2)coc2cc(OCc3nnc(-c4cc(F)cc(C(F)(F)F)c4)o3)ccc12` [PT-74, 7-({5-[3-fluoro-5-(trifluoromethyl)phenyl](1,3,4-oxadiazol-2-yl)}methoxy)-3-(4-hydroxyphenyl)chromen-4-one]: the “hMAO-A inhibition up to 10 μM” value is recorded as “No”.

Consider `O=c1c(-c2ccc(O)cc2)coc2cc(OCc3nnc(-c4ccc(F)cc4)o3)ccc12` [PT-81, 7-{[5-(4-fluorophenyl)(1,3,4-oxadiazol-2-yl)]methoxy}-3-(4-hydroxyphenyl)chromen-4-one], for which the “hMAO-A inhibition up to 10 μM” value is recorded as “No”. Take `O=c1c(-c2ccc(O)cc2)coc2cc(OCc3ccncc3)ccc12` [PT-82, 3-(4-hydxoxyphenyl)-7-(4-pyridylmethoxy)chromen-4-one]: the “hMAO-A inhibition up to 10 μM” value was “No”. In the case of `O=C(COc1ccc2c(=O)c(-c3ccc(O)cc3)coc2c1)Nc1ccccc1C(F)(F)F` [PT-84, 2-[3-(4-hydroxyphenyl)-4-oxochromen-7-yloxy]-N-[2-(trifluoromethyl)phenyl]-acetamide], the “hMAO-A inhibition up to 10 μM” value was “No”. For `O=c1c(-c2ccc(O)cc2)coc2cc(OCCc3ccccc3)ccc12` [PT-87, 3-(4-hydroxyphenyl)-7-(2-phenylethoxy)chromen-4-one], the “hMAO-A inhibition up to 10 μM” value was “No”.

Regarding `O=c1c(-c2ccc(O)cc2)coc2cc(OCCOc3ccc(Cl)cc3)ccc12` [PT-89, 7-[2-(4-chlorophenoxy)ethoxy]-3-(4-hydroxyphenyl)chromen-4-one], the “hMAO-A inhibition up to 10 μM” value turned out to be 34%. Still for that read-out and setting: under `C[C@@H](NC(=O)COc1ccc2c(=O)c(-c3ccc(O)cc3)coc2c1)c1ccc(F)cc1` [PT-90, N-[(1R)-1-(4-fluorophenyl)ethyl]-2-[3-(4-hydroxyphenyl)-4-oxochromen-7-yloxy]acetamide] stands “No”; under `O=c1c(-c2ccc(O)cc2)coc2cc(OCc3ccccn3)ccc12` [PT-91, 3-(4-hydroxyphenyl)-7-(2-pyridylmethoxy)chromen-4-one], “No”; under `O=c1c(-c2ccc(O)cc2)coc2cc(OCCNCc3cccc(C(F)(F)F)c3)ccc12` [PT-99, 3-(4-hydroxyphenyl)-7-[2-({[3-(trifluoromethyl)phenyl]methyl}amino)ethoxy]chromen-4-one], “No”.

For `COC(=O)c1coc(COc2ccc3c(=O)c(-c4ccc(O)cc4)coc3c2)n1` [PT-101, methyl 2-{[3-(4-hydroxyphenyl)-4-oxochromen-7-yloxy]methyl}-1,3-oxazole-4-carboxylate], the “hMAO-A inhibition up to 10 μM” value is given as “No”.

Still in this test, the particulars now being: up to 30 μM; No = no inhibition.
On to `COC(=O)c1cccc(COc2ccc3c(=O)c(-c4ccc(O)cc4)coc3c2)c1` [PT-33, methyl 3-{[3-(4-hydroxyphenyl)-4-oxochromen-7-yloxy]methyl}benzoate], for which the “hMAO-A inhibition up to 30 μM” value is on record as “No”.
